# Source: patent US20230035127A1, “CULTURE AND DIFFERENTIATION OF PLURIPOTENT STEM CELLS” (University of Maryland, College Park, priority 2021, published 2023)
# Where “and” joins values, the source holds several entries; their conditions need not be identical. Equal entries are not always repeated.
# Tests used:
# [1] = test system: eiPSC spheroids; test: Teratoma assay of eiPSC spheroids injected subcutaneously into NOD/SCID mice; format: in vivo; conditions: eiPSC spheroids from 1 and 10 μM RI groups, day 0, s.c. in NOD/SCID mice
# Method: To test the pluripotency of the cells in the 3D iPSC spheroids in vivo with the teratoma assay, the eiPSC spheroids were directly injected subcutaneously (s.c.) into the dorsal rear flank of severe combined immunodeficient mice (NOD.CB17-scid). A total of 2×10^6 cells in 300 μL of PBS was injected into each mouse (age: 5 weeks, and 5 mice per group). After 5 weeks, the mice were sacrificed, and the resulting teratoma were collected and fixed in 4% paraformaldehyde (PFA) for 3 days. Afterward, the samples were cut into small pieces of ˜0.5 cm^3, embedded in paraffin, and sectioned into slices of 5 μm thick. The slices were stained with hematoxylin and eosin (H&E) and imaged with a Zeiss LSM 710 microscope. All animal studies were approved by the Institutional Animal Care and Use Committee (IACUC, #R-MAY-18-24) at the University of Maryland, College Park.
# [2] = test system: eiPSC-derived cardiac spheroids; test: Re-plating of cardiac spheroids in regular cell culture petri dish (attachment); format: cell-based, human; conditions: day 13.5 spheroids, 3 days after re-plating
# Method: After 3 days, ˜61% of the cardiac spheroids in the 10 μM RI group attached to the 2D surface, and some of the cells migrated out of the spheroids appeared to be neuron-like with neurite-like processes (FIG. 4B-C). […] To confirm the aforementioned observation of neuron-like cells in the 10 μM RI group, immunofluorescence staining of cryosectioned cardiac spheroids on day 12.5 in the 1 and 10 μM RI groups was conducted. […] Therefore, studies were performed to further understand the mechanisms of the improved cardiac differentiation with the reduced RI.
# [3] = test system: eiPSC-derived cardiac spheroids; test: Immunostaining of cryosectioned eiPSC-derived cardiac spheroids; format: cell-based, human; conditions: cardiac spheroids day 12.5
# Method: (§1) The iPSC spheroids and the iPSC-derived Cardiac spheroids were fixed in 4% PFA in 1×PBS at 4° C. overnight. The fixed spheroids were incubated sequentially in 10% and 15% sucrose solutions in saline for 4 h, respectively. Afterward, the spheroids were put in a plastic box and embedded in OCT for cryosectioning. Slices of the spheroids of 10 μm thick were obtained by cutting the frozen sample on a Leica cryostat platform and then immediately attached onto the Leica Apex high adhesive glass slides.
# (§2) For immunostaining, the slides were gently rinsed twice with 1×PBS to remove the OCT and then incubated with 0.1% Tween-20 and 5% normal goat serum in 1×PBS for 1 h at room temperature (RT) to block non-specific bindings. Later, the samples were incubated with primary antibodies at 4° C. overnight. The dilution and product information of the primary antibodies were as follows: OCT-4 (1:500 dilution, Cell Signaling Technologies), NANOG (1:500 dilution, Cell Signaling Technologies), SSEA-4 (1:500 dilution, Cell Signaling Technologies), cTnT (1:500 dilution, Cell Signaling Technologies), CONNEXIN-43 (CX-43, 1:400 dilution, Santa Cruz Biotechnology), DESMIN (1:500 dilution, Santa Cruz Biotechnology), α-ACTININ (1:500 dilution; Santa Cruz Biotechnology), BRACHYURY (1:500; Santa Cruz Biotechnology), NKX2.5 (1:500; Santa Cruz Biotechnology), NESTIN (1:500; R & D Systems), MUSASHI-1 (1:500; R & D Systems), and TUJ-1 (1:500; R & D Systems). Afterward, the samples were rinsed with 1×PBS thrice and then incubated with the associated secondary antibodies (goat anti-rabbit IgG FITC and goat-anti-mouse IgG PE, Invitrogen) in 1×PBS for 1.5 h at RT. Lastly, the samples were rinsed with 1 ml of 1×PBS for 3 min and the nuclei were stained with 1 μg/ml DAPI solution for 5 min at RT. The samples were imaged with the Zeiss LSM 710 microscope.
# [4] = test system: human eiPSCs; test: RNA sequencing of eiPSC spheroids and cardiac spheroids; format: cell-based; conditions: MO vs. MT (1 vs 10 μM RI), day 13.5
# Source text: To investigate the mechanisms for the different outcomes when using different RI concentrations for culturing the eiPSC spheroids in 3D for cardiac differentiation, samples at various stages of the 3D culture and differentiation shown in FIG. 1 were collected and analyzed by RNA-sequencing (RNA-seq). The sample groups and their abbreviations are summarized in Table 1 including undifferentiated eiPSCs on day −2.5 (U), cardiac commitment on day 2.5 (C), cardiac maturation on day 13.5 (M), together with 2D monolayer colonies on day −4 (2D) as a common 2D undifferentiated control for both the 1 (one: […]) and 10 (ten: T) μM RI 3D culture. The raw data of RAN-seq were of high quality with an error rate of no more than 0.03%. […] Afterward, the gene expression level was calculated by the number of mapped reads, also known as fragments per kilobase of transcript per million mapped reads (FPKM). […]
# For RNA sequencing (RNA-Seq), total RNA was extracted from the eiPSC clumps from 2D culture on day −4 (termed as 2D) and spheroids collected on day −2.5 after 1.5 days in the 3D culture (termed as UO and UT for 1 μM and 10 μM RI conditions, respectively), day 2.5 (termed as CO and CT), and day 13.5 (termed as MO and MT). […] The RNA concentration in the samples was measured with Nanodrop and the integrity and quality of RNAs in the samples were confirmed with the Nano RNA Bioanalyzer. […]
# [5] = test system: IMR90-1 human iPSCs; test: Immunostaining of IMR90-1 cardiac spheroids; format: cell-based; conditions: day 12.5
# Method: as §1, §2
smiles,measurement,setting,value
"C[C@@H](N)[C@H]1CC[C@H](C(=O)Nc2ccncc2)CC1.Cl.Cl (relative stereo) [RI, (+)-(R)-trans-4-(1-aminoethyl)-N-(4-pyridyl) cyclo-hexanecarboxamide dihydrochloride]",teratoma formation (pluripotency in vivo),[1],forming teratomas consisting of tissues from all the three germ layers
same,percentage of cardiac spheroids attached to the 2D surface,[2]; 5 μM RI,~41%
same,percentage of cardiac spheroids attached to the 2D surface,"[2]; 10 μM RI, dihydrochloride",~61% and > 60%
same,cells positive for WNT4 and CD44,[3]; 1 μM RI,not the 1 μM RI group
same,expression of cTnT and CONNEXIN-43 (CX-43),[3]; 1 μM RI,highly expressed
same,staining of neural lineage markers TUJ-1 and MUSASHI-1,[3]; 1 μM RI,no evident staining
same,cells positive for WNT4 and CD44,[3]; 10 μM RI,positive
same,expression of cTnT and CONNEXIN-43 (CX-43),[3]; 10 μM RI,either weak (for cTnT) or barely visible (for CX-43)
same,staining of neural lineage markers TUJ-1 and MUSASHI-1,[3]; 10 μM RI,positive
same,top 2 significantly down-regulated differentially expressed gene groups (GO enrichment),[4],enriched to the forebrain and axon development
same,top 18 significantly upregulated differentially expressed gene groups (GO enrichment),[4],"enriched to heart development, muscle system process, and the development of Z-disc and I band"
same,expression of cTnT and CX-43,[5]; 1 μM RI,high with an evident expression of the gap junction protein CX-43
same,immunostaining of neural markers MUSASHI and TUJ-1,[5]; 1 μM RI,negligible
same,expression of cTnT and CX-43,[5]; 10 μM RI,"low and negligible, respectively"
same,immunostaining of neural markers MUSASHI and TUJ-1,[5]; 10 μM RI,existence of MUSASHI- and TUJ-1-positive cells
